From US12692265B2, “Solid state forms of Ensifentrine and process for preparation thereof” (ASSIA CHEMICAL INDUSTRIES LTD., priority 2021, dated 2026)

What was measured:
Format in all cases: physicochemical
[1] = Storage stability at different relative humidities and temperatures, 6 months (XRPD)
Description: (§1) X-ray diffraction was performed on X-Ray powder diffractometer: • Bruker D8 Advance; CuKα radiation (λ=1.5418 Å); Lynx eye detector; laboratory temperature 22-25° C.; PMMA specimen holder ring with silicon low background. Prior to analysis, the samples were gently ground by means of mortar and pestle in order to obtain a fine powder. The ground sample was adjusted into a cavity of the sample holder and the surface of the sample was smoothed by means of a cover glass. Measurement Parameters: • Scan range: 2-40 degrees 2-theta; • Scan mode: continuous; • Step size: 0.05 degrees; • Time per step: 0.5 s; • Sample spin: 30 rpm; • Sample holder: PMMA specimen holder ring with silicon low background.
Samples of Ensifentrine ethane-1,2-disulfonate form ES2 were subjected to conditions of different relative humidities at different temperatures. XRPD analysis was performed on the samples after 6 months.

[2] = Grinding experiments (strong grinding, solvent drop grinding; XRPD); conditions: for XRPD analysis results: 2 minutes
Description: as §1
Samples of Ensifentrine ethane-1,2-disulfonate form ES2 were subjected to strong grinding, and to solvent drop grinding in water and ethanol. Grinding was carried out on the samples alone, or in the presence of ethanol or water. In these experiments, about 20 mg of the sample is placed in a mortar and ground with a pestle for 2 minutes. The solvent, when used, as added to the crystalline material before grinding, in a volume of 10 microlitres. XRPD analysis performed on each of the samples after the grinding experiment, confirmed no change in the starting material (Table 3): […]

[3] = Thermal stability (heating, XRPD); conditions: heating up to 100° C. for 30 minutes
Description: as §1
XRPD analysis of the sample confirmed no change in the starting material (Table 4): […]

XRPD analysis results ([1]; 25° C., 60% RH): No change
XRPD analysis results ([1]; 40° C., 75% RH): No change
XRPD analysis results ([2]; Solvent-drop grinding (ethanol), 10 microlitres): No change
XRPD analysis results ([2]; Solvent-drop grinding (water), 10 microlitres): No change
XRPD analysis results ([2]; Strong grinding, about 20 mg, mortar and pestle): No change
XRPD analysis after the grinding experiment ([2]; each of the samples: alone, with ethanol, with water): no change
XRPD analysis after heating [3]: no change
Substance: Ensifentrine ethane-1,2-disulfonate
